# According to US20150190534A1, “COMPOUNDS FOR USE AS POSITRON EMISSION IMAGING AGENTS” (UNIVERSITY OF BERN, priority 2014, published 2015):
# Changes are numbered by the printed parent chain. Like-named read-outs stand apart in the source and are kept apart here.
# Experiments:
# human WT-AR = target: T1, human WT-AR (Homo sapiens, UniProt P10275); experiment: Whole cell competitive binding assay, WT-AR
# T1 construct: pSG5-AR with full-length cDNA of human WT-AR; expressed in transfected cells; host or cells: COS-7
# T1 sequence (P10275 1-920): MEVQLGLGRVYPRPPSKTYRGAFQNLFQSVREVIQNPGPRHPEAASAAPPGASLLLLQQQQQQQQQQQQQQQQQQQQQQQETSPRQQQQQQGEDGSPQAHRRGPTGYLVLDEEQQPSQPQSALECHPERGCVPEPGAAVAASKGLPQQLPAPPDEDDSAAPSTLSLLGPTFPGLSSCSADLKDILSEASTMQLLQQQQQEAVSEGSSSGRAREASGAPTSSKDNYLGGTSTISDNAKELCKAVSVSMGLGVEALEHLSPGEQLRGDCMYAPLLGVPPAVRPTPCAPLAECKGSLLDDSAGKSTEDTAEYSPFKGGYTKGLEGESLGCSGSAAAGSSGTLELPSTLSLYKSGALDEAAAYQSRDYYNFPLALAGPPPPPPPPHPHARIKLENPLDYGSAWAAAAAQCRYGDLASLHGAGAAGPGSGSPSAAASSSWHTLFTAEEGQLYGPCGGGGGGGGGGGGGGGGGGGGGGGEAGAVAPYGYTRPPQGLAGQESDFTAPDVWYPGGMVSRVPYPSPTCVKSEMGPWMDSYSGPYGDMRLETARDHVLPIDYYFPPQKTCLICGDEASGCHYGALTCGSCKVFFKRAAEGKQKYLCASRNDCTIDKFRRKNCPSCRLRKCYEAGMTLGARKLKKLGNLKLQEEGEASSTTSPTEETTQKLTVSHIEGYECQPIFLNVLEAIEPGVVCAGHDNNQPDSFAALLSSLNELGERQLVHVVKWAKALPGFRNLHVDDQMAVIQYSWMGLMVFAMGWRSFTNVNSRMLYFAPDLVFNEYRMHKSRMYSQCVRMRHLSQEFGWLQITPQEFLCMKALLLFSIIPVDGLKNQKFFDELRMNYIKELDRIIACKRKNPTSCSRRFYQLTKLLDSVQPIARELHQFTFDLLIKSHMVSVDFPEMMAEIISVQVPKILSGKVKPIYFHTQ
# Protocol: (§1) Prostate. Jun. […] T877A-AR was generated by site-directed mutagenesis as described in Andrieu T, Bertolini R, Nichols S E, et al. A novel steroidal antiandrogen targeting wild type and mutant androgen receptors. Biochem Pharmacol. Dec. […] Cells seeded on 6-well plates (density: 5×10^5/well) were transfected 96 h later with 1 μg of empty (pcDNA3) or human AR encoding plasmids using 3 μl of FuGENE-HD transfection reagent (Roche, Rotkreuz, Switzerland). One day after transfection the medium was changed to 2% charcoal treated (CT) FBS containing medium.
# (§2) In 24 wells 50′000 COS-7 cells were seeded and transfected with 500 ng of receptor encoding plasmids. One day later, cells were washed and cultured in 0.5 ml of phenol-red free DMEM with 2% CT-FBS for another 24 h. […] Supernatant and cells were mixed with scintillation liquid (Irgasafe, Perkin Elmer) and radioactivity counted (Tri-Carb 2000CA, Canberra Packard). The percentage of binding in presence and absence of derivative was calculated relatively to total dpm and results expressed as percentage of binding relative to the ^3H-tracer alone (100%).
# [1] = tested on: T877A-AR positive C4-2 tumors; experiment: PET/CT imaging, C4-2 tumor bearing mice; format: in vivo, mouse
# [2] = tested on: PC-3 AR-negative xenografts; experiment: PET/CT imaging, PC-3 tumor bearing mice; format: in vivo, mouse; details: 3 h after injection
# T877A-AR = target: T2, T877A-AR (Homo sapiens, UniProt P10275, T878A); experiment: Whole cell competitive binding assay, T877A-AR
# T2 construct: pSG5-AR with full-length cDNA of human WT-AR; expressed in transfected cells; host or cells: COS-7
# T2 sequence (P10275 1-920 T878A): T1 sequence (P10275 1-920) with T878A
# Protocol: as §1, §2
# [3] = tested on: T877A-AR positive C4-2 tumors; details: 1 h
# Protocol: (§3) Male SCID-mice (Charles River, Sulzfeld, Germany) were subcutaneously injected with C4-2 and PC-3 cells into both shoulders as previously described (21).
# (§4) Images were reconstructed at 0.6 mm thickness using a H31s medium smooth plus kernel. […] For biodistribution studies mice were sacrificed using CO2 after 1-3 h, designated organs and tissues harvested and weighed. Radioactivity was measured in a Gamma-counter (Wizard, Perkin Elmer) and the percentage of injected dose per gram of tissue (% ID/g) calculated.
# [4] = Protocol: as §3, §4
# [5] = tested on: receptor negative PC-3 tumors; details: 1 h
# Protocol: as §3, §4
# [6] = target: T3, mutant T877A-AR (pSG5AR-T877A) transfected COS-7 cells (Homo sapiens, UniProt P10275, T878A); format: cell-based
# T3 construct: pSG5-AR with full-length cDNA of human WT-AR; expressed in transfected cells; host or cells: COS-7
# T3 sequence (P10275 1-920 T878A): T1 sequence (P10275 1-920) with T878A
# Excerpt: Prostate. Jun. 1, 2011; 71(8):872-880.), progesterone receptor (pSG5-PR-alpha, pSG5-pPRbeta, PR), glucocorticoid (pCMV5-hGR-alpha, GR) and mineralocorticoid receptors (pRShMR, MR), estrogen receptors (pCMV5-ER-alpha, pCMV5-ER-beta, ER). T877A-AR was generated by site-directed mutagenesis as described in Andrieu T, Bertolini R, Nichols S E, et al. A novel steroidal antiandrogen targeting wild type and mutant androgen receptors. Biochem Pharmacol. Dec. 1, 2011; 82(11):1651-1662. Cells seeded on 6-well plates (density: 5×10^5/well) were transfected 96 h later with 1 μg of empty (pcDNA3) or human AR encoding plasmids using 3 μl of FuGENE-HD transfection reagent (Roche, Rotkreuz, Switzerland). One day after transfection the medium was changed to 2% charcoal treated (CT) FBS containing medium.
# Then cells were washed with ice cold PBS. Collected medium and PBS were considered as the unbound fraction. Cells were incubated for 5 min in glycine buffer 50 mM (pH 2.8), washed with PBS (membrane fraction) and lysed with RIPA buffer (Sigma, R0278) (cellular fraction). The radioactivity was measured by gamma counting. Cellular uptake of radioactivity was corrected by the protein amount (BCA assay, Pierce).
molecule,measurement,setting,value
C[C@]12CCC(=O)C[C@@H]1CC[C@@H]1[C@@H]2CC[C@]2(C)[C@@H](OC(=O)NCCCF)CC[C@@H]12 [RB390],IC50,human WT-AR,357 nM
same,PET signal in C4-2 tumors with unlabelled DHT,"[1]; 3 h, excess of unlabelled DHT injected in parallel",nearly full receptor blockade
same,PET signal in C4-2 tumors,[1]; 3 h after injection,bound specifically
same,PET signal in PC-3 tumors,[2],remained at background levels
same,IC50,T877A-AR,32 nM
C[C@]12CC[C@H](O)C[C@@H]1CC[C@@H]1[C@@H]2CC[C@]2(C)[C@@H](OC(=O)NCCCF)CC[C@@H]12 [RB448],IC50,human WT-AR,2200 nM
same,IC50,T877A-AR,37.7 nM
same,affinity/selectivity for T877A-AR versus WT-AR,T877A-AR; comparison of IC50 values,even more favorable selectivity
"C[N+](C)(CF)CCO [^18F-FCH, ^18F-fluorocholine]",C4-2 Tumor,[3],31.62 ± 3.88 % ID/g
same,Bone,[4]; 1 h,27.99 ± 5.95 % ID/g
same,Brain,[4]; 1 h,9.61 ± 2.13 % ID/g
same,Heart,[4]; 1 h,76.93 ± 5.18 % ID/g
same,Intestine,[4]; 1 h,22.97 ± 4.67 % ID/g
same,Kidney,[4]; 1 h,164.72 ± 33.57 % ID/g
same,Liver,[4]; 1 h,48.82 ± 7.55 % ID/g
same,Lung,[4]; 1 h,97.42 ± 23.21 % ID/g
same,Muscle,[4]; 1 h,10.36 ± 2.58 % ID/g
same,Prostate,[4]; 1 h,48.26 ± 19.35 % ID/g
same,Spleen,[4]; 1 h,66.48 ± 19.45 % ID/g
same,Testis,[4]; 1 h,13.58 ± 2.64 % ID/g
same,route of metabolism/excretion,[4]; tumor bearing SCID-mice,excreted predominantly by the kidney
same,PC-3 Tumor,[5],5.65 ± 1.37 % ID/g
same,preferential uptake by transfected cells,"[6]; pcDNA3, WT-AR or T877A-AR transfected COS-7 cells",did not reveal any preferential uptake
same,radioactivity after washing procedures,"[6]; transfected COS-7 cells, washing procedures",eliminated
^18F-fluorodeoxyglucose [^18F-FDG],preferential uptake by transfected cells,[6],did not reveal any preferential uptake
same,radioactivity after washing procedures,[6],eliminated
